Measured values published in ChEMBL document CHEMBL3286280, “Importance of sphingosine kinase (SphK) as a target in developing cancer therapeutics and recent developments in the synthesis of novel SphK inhibitors” (J Med Chem, 2014).

What was measured:
Sphingosine kinase 2 [1] = target: T1, Sphingosine kinase 2 (Homo sapiens, UniProt Q9NRA0); assay: Competitive inhibition of V5-His-tagged human SphK2 expressed in HEK293 cells assessed as S1P production using sphingosine and [gamma-32P]ATP as substrate by thin layer chromatography; format: cell-based
T1 sequence (Q9NRA0 whole entry): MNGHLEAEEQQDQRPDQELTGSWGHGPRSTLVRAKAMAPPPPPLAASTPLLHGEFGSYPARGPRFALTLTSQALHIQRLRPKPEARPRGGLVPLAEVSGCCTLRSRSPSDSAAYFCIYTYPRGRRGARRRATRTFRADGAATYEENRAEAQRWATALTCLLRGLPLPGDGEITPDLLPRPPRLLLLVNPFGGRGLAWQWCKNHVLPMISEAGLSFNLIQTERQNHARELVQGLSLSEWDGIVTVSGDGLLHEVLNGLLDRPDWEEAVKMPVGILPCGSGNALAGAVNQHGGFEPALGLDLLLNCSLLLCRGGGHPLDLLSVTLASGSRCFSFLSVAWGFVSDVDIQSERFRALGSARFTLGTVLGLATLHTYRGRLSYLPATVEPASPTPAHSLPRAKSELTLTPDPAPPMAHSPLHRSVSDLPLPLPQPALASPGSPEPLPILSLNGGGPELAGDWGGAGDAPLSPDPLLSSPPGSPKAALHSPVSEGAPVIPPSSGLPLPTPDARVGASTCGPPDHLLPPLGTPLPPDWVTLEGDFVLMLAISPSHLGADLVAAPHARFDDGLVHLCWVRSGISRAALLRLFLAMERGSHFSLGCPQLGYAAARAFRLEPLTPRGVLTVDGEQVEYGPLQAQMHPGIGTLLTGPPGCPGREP

Homo sapiens = species: Homo sapiens; assay: Selectivity ratio for SphK1 (unknown origin) over SphK2 (unknown origin)
Sphingosine kinase 2 [2] = target: T1, Sphingosine kinase 2; assay: Inhibition of SphK2 (unknown origin)
Sphingosine kinase 2 [3] = target: T1, Sphingosine kinase 2; assay: Inhibition of SphK2 (unknown origin) using sphingosine and [gamma-32P]ATP as substrate

Structure (SMILES)	Selectivity ratio (Homo sapiens)	Ki (Sphingosine kinase 2 [2]) [µM]	also measured
CCCCCc1ccc(/C=C/[C@H](O)[C@@H](CO)NC)cc1			IC50 (Sphingosine kinase 2 [1]): 10 µM
CCCCCCCCc1ccc(CCN2CCCC(O)C2)cc1 (stereo unspecified)	6.1		
CCCCCCCCc1ccc(CCN2CCC(O)CC2)cc1	15		
CCCCCCCCc1ccc(CC[C@@](N)(CO)COC)cc1		27	
CCCCCCCCCCCCC/C=C/[C@@H](O)[C@H](CO)N(C)C [DIMETHYLSPINGOSINE]		12	
CCCCOc1ccc(CC/C=C2\SC(=O)N(CCN)C2=O)cc1			Ki (Sphingosine kinase 2 [3]): 4.3 µM
